Experimental data from US20090012103A1, “SUBSTITUTED HETEROCYCLIC COMPOUNDS” (priority 2007, published 2009).

Key:
[1] = molecular target: T1, wild-type human cardiac sodium channel, hNav1.5 (Homo sapiens, UniProt Q14524); test: Late INa screening assay (late sodium current, PatchXpress whole cell patch clamp); assay type: cell-based; details: compound at 10 μM; for inhibition at 10 µM: read-out: Late INa % blk
[2] = molecular target: T1, wild-type human cardiac sodium channel, hNav1.5; test: Peak INa screening assay (tonic block TB and use-dependent block UDB of peak sodium current); assay type: cell-based; details: tonic block; compound at 10 μM; read-out: Tonic Peak INa % blk
Description: The late sodium current (Late INa) and peak sodium current (Peak INa) assays are performed on an automated electrophysiology platform, PatchXpress 7000A (MDS Analytical Technologies, Sunnyvale, Calif.), which uses the whole cell patch clamp technique to measure currents through the cell membrane of up to 16 cells at a time. The assay uses an HEK293 (human embryonic kidney) cell line heterologously expressing the wild-type human cardiac sodium channel, hNav1.5, purchased from Millipore (Billerica, Mass.). No beta subunits were coexpressed with the Na channel alpha subunit. […] Experiments are carried out at 24-27° C.
For both the Late INa and Peak INa assays, series resistance compensation is set to 50% and whole-cell compensation is performed automatically. […] Currents through open sodium channels are automatically recorded and stored in the DataXpress2 database (MDS Analytical Technologies, Sunnyvale, Calif.). Analysis is performed using DataXpress2 analysis software and data are compiled in Excel.
Compound stocks are routinely made in glass vials to 10 mM in dimethyl sulfoxide (DMSO). In some cases, when compounds are not soluble in DMSO, they are made in 100% ethanol. Stocks are sonicated as necessary. The extracellular solution for screening Late INa is composed of: 140 mM NaCl, 4 mM KCl, 1.8 mM CaCl2, 0.75 mM MgCl2, and 5 mM HEPES with pH adjusted to 7.4 using NaOH. The extracellular solution for screening Peak INa is composed of: 20 mM NaCl, 120 mM N-methyl-D glucamine, 4 mM KCl, 1.8 mM CaCl2, 0.75 mM MgCl2, and 5 mM HEPES with pH adjusted to 7.4 using HCl. The intracellular solution used to perfuse the inside of the cells for both the Late INa and Peak INa assays contains: 120 mM CsF, 20 mM CsCl, 5 mM EGTA, 5 mM HEPES and pH adjusted to 7.4 with CsOH. Compounds are diluted in extracellular solution to 10 μM in glass vials and then transferred to glass well plates before robotic addition to the cells. The 0 Na extracellular solution used at the end of each experiment for the Late INa and Peak INa assays to measure baseline current contains: 140 mM N-methyl-D-glucamine; 4 mM KCl; 1.8 mM CaCl2; 0.75 mM MgCl2; 5 mM HEPES and pH was adjusted to 7.4 with HCl.
Compounds were also evaluated for their effect in several other assays, including their effect on Peak INa. In some cases, the effect on Peak INa was measured using data from the Late INa assay. […] Since the peak INa can be very large, introducing artifacts in the recording, the concentration of Na^+ in the bath is reduced to 20 mM and a nonpermeant cation is added to compensate for the Na^+ that was omitted from the standard extracellular solution (see above). The peak INa assay uses a holding potential of −100 mV and a 20 ms test pulse to 0 mV to activate the channel. As in the Late INa assay, stepping the voltage to 0 mV causes a rapid increase in negative Na current through hNav1.5 that inactivates within a few ms. No late INa activator is added for the peak assay.
For the separate peak INa assay, both tonic (TB) block and use-dependent (UDB) block of peak inward sodium current by 10 μM compound are determined. TB is block of the channel in the resting state, before the channel opens. TB is simulated in this assay by stimulating the channel to open at a low frequency (0.1 Hz). This is done in order to measure the control current amplitude and monitor current rundown, enabling correction for rundown in the calculation of percent block for TB.

hERG potassium channel = hERG potassium channel (Homo sapiens, UniProt Q12809); test: hERG screening assay (PatchXpress patch clamp, CHO cell line)
hERG potassium channel, sequence (Q12809 whole entry): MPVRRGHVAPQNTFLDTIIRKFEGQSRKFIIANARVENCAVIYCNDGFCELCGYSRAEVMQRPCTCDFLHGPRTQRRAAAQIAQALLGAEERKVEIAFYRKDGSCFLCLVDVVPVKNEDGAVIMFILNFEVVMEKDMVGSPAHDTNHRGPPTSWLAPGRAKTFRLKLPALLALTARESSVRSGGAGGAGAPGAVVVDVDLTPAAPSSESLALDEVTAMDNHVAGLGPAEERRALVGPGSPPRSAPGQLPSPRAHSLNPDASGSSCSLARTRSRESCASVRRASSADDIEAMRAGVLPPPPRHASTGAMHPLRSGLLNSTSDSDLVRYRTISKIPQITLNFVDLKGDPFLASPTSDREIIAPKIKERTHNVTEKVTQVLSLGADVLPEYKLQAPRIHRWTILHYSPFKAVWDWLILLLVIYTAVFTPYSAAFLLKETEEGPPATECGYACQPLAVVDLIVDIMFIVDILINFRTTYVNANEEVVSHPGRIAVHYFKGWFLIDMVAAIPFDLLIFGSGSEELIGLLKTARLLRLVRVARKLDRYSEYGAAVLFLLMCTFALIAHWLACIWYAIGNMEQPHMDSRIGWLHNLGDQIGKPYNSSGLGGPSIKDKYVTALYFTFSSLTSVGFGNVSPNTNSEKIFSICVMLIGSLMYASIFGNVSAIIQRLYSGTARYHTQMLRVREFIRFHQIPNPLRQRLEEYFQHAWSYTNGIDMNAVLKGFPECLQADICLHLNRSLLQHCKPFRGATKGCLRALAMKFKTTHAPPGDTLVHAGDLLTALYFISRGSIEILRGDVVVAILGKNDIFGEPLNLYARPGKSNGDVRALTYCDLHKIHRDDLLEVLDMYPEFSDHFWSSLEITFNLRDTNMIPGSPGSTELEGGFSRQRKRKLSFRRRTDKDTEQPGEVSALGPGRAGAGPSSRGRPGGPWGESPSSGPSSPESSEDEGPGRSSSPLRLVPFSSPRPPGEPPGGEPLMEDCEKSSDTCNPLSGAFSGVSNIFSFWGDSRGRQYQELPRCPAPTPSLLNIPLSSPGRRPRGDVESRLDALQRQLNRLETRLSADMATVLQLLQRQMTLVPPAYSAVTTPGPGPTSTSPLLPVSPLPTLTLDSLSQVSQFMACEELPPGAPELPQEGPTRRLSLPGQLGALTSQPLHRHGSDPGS

T1 sequence (Q14524 whole entry): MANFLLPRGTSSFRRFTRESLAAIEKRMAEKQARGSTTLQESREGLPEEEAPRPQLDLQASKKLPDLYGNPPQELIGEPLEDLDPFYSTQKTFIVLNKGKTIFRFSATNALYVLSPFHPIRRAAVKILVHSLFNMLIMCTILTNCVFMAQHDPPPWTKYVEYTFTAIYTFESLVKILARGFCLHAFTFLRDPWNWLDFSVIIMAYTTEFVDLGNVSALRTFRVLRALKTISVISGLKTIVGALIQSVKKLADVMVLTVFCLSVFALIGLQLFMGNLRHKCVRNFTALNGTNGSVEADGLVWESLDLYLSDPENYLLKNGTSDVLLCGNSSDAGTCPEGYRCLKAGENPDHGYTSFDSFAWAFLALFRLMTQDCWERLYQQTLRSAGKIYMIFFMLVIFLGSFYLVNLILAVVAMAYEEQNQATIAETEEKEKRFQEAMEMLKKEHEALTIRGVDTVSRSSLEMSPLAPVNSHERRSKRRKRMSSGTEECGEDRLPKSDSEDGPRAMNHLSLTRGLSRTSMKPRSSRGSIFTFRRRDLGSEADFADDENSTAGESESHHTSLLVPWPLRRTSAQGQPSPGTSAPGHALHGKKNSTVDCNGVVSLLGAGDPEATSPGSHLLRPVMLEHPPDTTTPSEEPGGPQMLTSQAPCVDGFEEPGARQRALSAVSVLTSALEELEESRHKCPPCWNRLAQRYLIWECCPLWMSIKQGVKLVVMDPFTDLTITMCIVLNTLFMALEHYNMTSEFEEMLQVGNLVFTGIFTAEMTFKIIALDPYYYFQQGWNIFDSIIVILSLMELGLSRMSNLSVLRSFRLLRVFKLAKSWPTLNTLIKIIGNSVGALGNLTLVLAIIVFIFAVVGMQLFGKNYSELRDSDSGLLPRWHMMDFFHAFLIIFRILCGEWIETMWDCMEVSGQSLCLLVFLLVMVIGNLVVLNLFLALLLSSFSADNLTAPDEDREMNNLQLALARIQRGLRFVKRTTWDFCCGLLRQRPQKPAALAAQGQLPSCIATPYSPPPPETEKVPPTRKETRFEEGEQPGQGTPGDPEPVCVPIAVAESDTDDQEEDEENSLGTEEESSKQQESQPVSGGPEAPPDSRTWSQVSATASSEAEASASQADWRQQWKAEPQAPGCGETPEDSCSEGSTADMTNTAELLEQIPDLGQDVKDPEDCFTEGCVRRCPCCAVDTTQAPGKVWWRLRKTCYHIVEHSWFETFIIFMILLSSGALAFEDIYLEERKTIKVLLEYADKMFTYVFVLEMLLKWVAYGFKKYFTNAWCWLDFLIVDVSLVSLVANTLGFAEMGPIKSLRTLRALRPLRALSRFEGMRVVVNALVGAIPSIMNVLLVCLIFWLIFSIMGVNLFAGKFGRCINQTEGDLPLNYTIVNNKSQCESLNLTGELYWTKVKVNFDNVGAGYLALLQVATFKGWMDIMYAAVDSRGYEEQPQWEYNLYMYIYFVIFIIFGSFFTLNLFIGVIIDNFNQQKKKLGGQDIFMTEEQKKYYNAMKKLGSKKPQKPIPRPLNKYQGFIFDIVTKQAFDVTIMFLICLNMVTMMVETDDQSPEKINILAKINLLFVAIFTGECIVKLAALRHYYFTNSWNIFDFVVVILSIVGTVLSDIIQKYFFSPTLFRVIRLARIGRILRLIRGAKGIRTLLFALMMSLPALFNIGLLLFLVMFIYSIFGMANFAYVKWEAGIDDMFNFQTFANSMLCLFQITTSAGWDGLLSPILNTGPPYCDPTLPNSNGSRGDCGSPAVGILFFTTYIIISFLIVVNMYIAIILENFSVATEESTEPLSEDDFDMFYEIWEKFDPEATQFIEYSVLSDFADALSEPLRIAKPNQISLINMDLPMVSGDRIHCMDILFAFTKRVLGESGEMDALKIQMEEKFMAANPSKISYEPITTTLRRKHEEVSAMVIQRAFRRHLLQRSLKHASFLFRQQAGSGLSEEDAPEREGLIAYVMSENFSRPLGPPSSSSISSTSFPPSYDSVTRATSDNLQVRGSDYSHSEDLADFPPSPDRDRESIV

Compound	inhibition at 10 µM [1] [%]	inhibition at 10 µM [2] [%]	hERG Patch Clamp hERG % blk (hERG potassium channel; 1 μM) [%]	hERG Patch Clamp hERG % blk (hERG potassium channel; 10 μM) [%]	Late INa % blk [1] [%]
CC1=C(C(=O)OCC(F)(F)F)C(c2cccc3ccccc23)n2nnnc2N1 (stereo not shown) [PT-014, 2,2,2-trifluoroethyl 5-methyl-7-(naphthalen-1-yl)-4,7-dihydrotetrazolo[1,5-a]pyrimidine-6-carboxylate]	50.9	9			
CC1=C(C(=O)O[C@@H](C)c2ccccc2)C(c2cccc3ccccc23)n2nnnc2N1 (stereo partly drawn) [PT-048, (S)-1-phenylethyl 5-methyl-7-(naphthalen-1-yl)-4,7-dihydrotetrazolo[1,5-a]pyrimidine-6-carboxylate]	90.8	58.6			
CC1=C(C(=O)O[C@@H](C)c2ccccc2)C(c2c3ccccc3cc3ccccc23)n2nnnc2N1 (stereo partly drawn) [PT-055, (S)-1-phenylethyl 7-(anthracen-9-yl)-5-methyl-4,7-dihydrotetrazolo[1,5-a]pyrimidine-6-carboxylate]	56.3	7.6			
N#CC1=C(N)OC2=C(C(=O)CC(c3ccccc3)C2)C1c1ccsc1 (stereo not shown) [PT-102, 2-amino-5-oxo-7-phenyl-4-(thiophen-3-yl)-5,6,7,8-tetrahydro-4H-chromene-3-carbonitrile]	44.9	2.7			
CCOC(=O)C1=C(C)NC(C)=C(C(=O)OCC)C1c1ccsc1 [PT-110, diethyl 2,6-dimethyl-4-(thiophen-3-yl)-1,4-dihydropyridine-3,5-dicarboxylate]	41.8	0			
CCOC(=O)C1=C(C)NC2=C(C(=O)CCC2)C1c1ccc(C)c2ccccc12 (stereo not shown) [PT-135, ethyl 2-methyl-4-(4-methylnaphthalen-1-yl)-5-oxo-1,4,5,6,7,8-hexahydroquinoline-3-carboxylate]	59.9	9.6			
CC1=C(C(=O)OC(C)C)C(c2c[nH]nc2-c2cccs2)C2=C(CC(C)(C)CC2=O)N1 (stereo not shown) [PT-162, isopropyl 2,7,7-trimethyl-5-oxo-4-(3-(thiophen-2-yl)-1H-pyrazol-4-yl)-1,4,5,6,7,8-hexahydroquinoline-3-carboxylate]	-0.2	1.1			
CC1=C(C(=O)NCCCCc2ccccc2)C(c2ccsc2)C2=C(CCCC2=O)N1 (stereo not shown) [PT-164, 2-methyl-5-oxo-N-(4-phenylbutyl)-4-(thiophen-3-yl)-1,4,5,6,7,8-hexahydroquinoline-3-carboxamide]	32	10.2			
CCS(=O)(=O)N1CCN(c2cccc(OC)c2C2C(C(=O)OCc3ccccc3)=C(C)Nc3nnnn32)CC1 (stereo not shown) [PT-378, benzyl 7-(2-(4-(ethylsulfonyl)piperazin-1-yl)-6-methoxyphenyl)-5-methyl-4,7-dihydrotetrazolo[1,5-a]pyrimidine-6-carboxylate]	42		10.0	41.5	
CC1=C(C(=O)OCc2ccccc2)C(c2c(Br)sc3ccccc23)n2nnnc2N1 (stereo not shown) [PT-386, benzyl 7-(2-bromobenzo[b]thiophen-3-yl)-5-methyl-4,7-dihydrotetrazolo[1,5-a]pyrimidine-6-carboxylate]	79.2		10.0	16.5	
CC1=C(C(=O)OCc2ccccc2)C(c2occc2-c2ccc(F)cc2)n2nnnc2N1 (stereo not shown) [PT-396, benzyl 7-(3-(4-fluorophenyl)furan-2-yl)-5-methyl-4,7-dihydrotetrazolo[1,5-a]pyrimidine-6-carboxylate]	80.7		10.0	32.0	
CC1=C(C(=O)OCc2ccccc2)C(c2sccc2-c2ccc(F)cc2)n2nnnc2N1 (stereo not shown) [PT-397, benzyl 7-(3-(4-fluorophenyl)thiophen-2-yl)-5-methyl-4,7-dihydrotetrazolo[1,5-a]pyrimidine-6-carboxylate]	69.1		10.0	25.0	
CC1=C(C(=O)OCc2ccccc2)C(c2ccc(N(C)C)cc2[N+](=O)[O-])n2nnnc2N1 (stereo not shown) [PT-409, benzyl 7-(4-(dimethylamino)-2-nitrophenyl)-5-methyl-4,7-dihydrotetrazolo[1,5-a]pyrimidine-6-carboxylate]	43.1		27.0	78.5	
CC(=O)c1ccc(-c2ccccc2C2C(C(=O)OCc3ccccc3)=C(C)Nc3nnnn32)cc1 (stereo not shown) [PT-415, benzyl 7-(4′-acetylbiphenyl-2-yl)-5-methyl-4,7-dihydrotetrazolo[1,5-a]pyrimidine-6-carboxylate]	75.4		10.5	38.5	
CCOC(=O)C1=C(C)Nc2c(c(C)nn2C)C1c1cccc2ccccc12 (stereo not shown) [PT-440, ethyl 1,3,6-trimethyl-4-(naphthalen-1-yl)-4,7-dihydro-1H-pyrazolo[3,4-b]pyridine-5-carboxylate]	42.8		12.0	48.0	
CCOC(=O)C1=C(C)Nc2[nH]ncc2C1c1ccccc1Br (stereo not shown) [PT-448, ethyl 4-(2-bromophenyl)-6-methyl-4,7-dihydro-1H-pyrazolo[3,4-b]pyridine-5-carboxylate]	33.6		10.0	57.5	
CCOC(=O)C1=C(C)Nc2nnnn2C1c1ccccc1-n1ccnc1C.Cl (stereo not shown) [PT-457, ethyl 5-methyl-7-(2-(2-methyl-1H-imidazol-1-yl)phenyl)-4,7-dihydrotetrazolo[1,5-a]pyrimidine-6-carboxylate hydrochloride]	12.6		10.0	21.0	
CCOC(=O)C1=C(C)Nc2nnnn2C1c1ccccc1-n1ccnc1.Cl (stereo not shown) [PT-476, ethyl 7-(2-(1H-imidazol-1-yl)phenyl)-5-methyl-4,7-dihydrotetrazolo[1,5-a]pyrimidine-6-carboxylate hydrochloride]	2.6		17.5	23.0	
CCOC(=O)C1=C(C)Nc2nnnn2C1c1ccccc1-n1cccn1.Cl (stereo not shown) [PT-477, ethyl 7-(2-(1H-pyrazol-1-yl)phenyl)-5-methyl-4,7-dihydrotetrazolo[1,5-a]pyrimidine-6-carboxylate hydrochloride]	6.2		12.0	44.0	
CCOC(=O)C1=C(C)Nc2nnnn2C1c1ccccc1-c1cccc(-c2nnn[nH]2)c1 (stereo not shown) [PT-493, ethyl 7-(3′-(1H-tetrazol-5-yl)biphenyl-2-yl)-5-methyl-4,7-dihydrotetrazolo[1,5-a]pyrimidine-6-carboxylate]	0.5		10.0	10.0	
COC(=O)C1=C(C)Nc2nnnn2C1c1cccc2ccccc12 (stereo not shown) [PT-512, methyl 5-methyl-7-(naphthalen-1-yl)-4,7-dihydrotetrazolo[1,5-a]pyrimidine-6-carboxylate]	26.6		10.5	14.0	
H-furo[3,4-e]pyrazolo[3,4-b]pyridin-5(4H)-one [PT-079]			57.5	96.5	49.0
